Assay results: patent US20050267050A1, “Compositions and methods for treating mdma-induced toxicity” (YEDA RESEARCH AND DEVELOPMENT CO. LTD., priority 2002, published 2005)

Tested on: MDMA acute toxicity in mice
Assay: Protective activity against MDMA acute toxicity (survival) in mice
Type: in vivo, C57B1/6J mice
Conditions: inhibitor i.p. 5-120 minutes before toxic dose of MDMA; FIG. 6A
Experimental: Next step was to determine whether compounds blocking the enhanced expression of GABA transporters may restraint MDMA-induced hyperthermia. We ran trials to determine whether the mortality levels causes by MDMA administration would be affected by treatment with suspected GABA transporter inhibiting compounds Tiagabine, nipecotic acid derivative NO-711, and Vigabatrin which have been used hitherto as anti-epileptics.
Mice were administered dose(s) of mg/ml of MDMA according to the following schedule and were […] injected with a dose of the GABA transporter blocker. In the first set of experiments the effective toxic dose of MDMA was determined. C57B1/6J mice, 2-3 months old, 6 mice in each group, were tested with different concentration of the drug, prepared in saline and injected intraperitoneally. Saline solution was used as a control. The lowest concentration of the drug causing 100% death within 60 minutes was used in the following experiments. Mice (8 in each group) were injected (i.p.) with different concentrations of the tested GABA transporter inhibitor, or other compound, and 5-120 minutes later were injected with the toxic dose of MDMA. […]

## Cl.O=C(O)C1=CCCN(CCON=C(c2ccccc2)c2ccccc2)C1 [NO-711, 1-(2(((diphenylmethylene)imino)oxy)ethyl)-1,2,5,6-tetrahydro-3-pyridinecarboxylic acid hydrochloride]
  Survival of MDMA-treated mice: significantly improved the survival
